# Assay results reported in patent US20170081323A1 (priority 2015, published 2017).
# System: influenza A virus (IAV) A/Aichi/2/68 (H3N2)
# Assay: microbe, parasite or virus in culture
# Format: cell-based, influenza A virus A/Aichi/2/68 (H3N2) on MDCK cells
# Settings: H3N2, MDCK, 48 h, read-out: CPE
row,SMILES,IC50 [µM]
1,O=c1[nH]nc2n1C(OCC1CC1)CCC2 (centres unmarked),> 50
2,O=c1[nH]nc2ccc(-c3cccc(F)c3F)cn12,> 50
3,O=c1[nH]nc2ccc(-c3ccccc3-c3ccncc3)cn12,> 50
4,O=c1[nH]nc2c(-c3ccccc3)cccn12,> 50
5,O=c1[nH]nc2ccc(-c3ccccc3Cl)cn12,> 50
6,O=c1[nH]nc2cc(-c3ccccc3)ccn12,> 50
7,O=c1[nH]nc2ccc(-c3ccc(Cl)cc3)cn12,> 50
8,O=c1[nH]nc2ccc(-c3cccc(-c4ccccc4)c3)cn12,> 50
9,O=c1[nH]nc2ccc(-c3cccc(F)c3)cn12,> 50
10,O=c1[nH]nc2cccc(-c3ncccn3)n12,> 50
11,O=c1[nH]nc2ccc(-c3ccccc3)cn12,> 50
12,O=c1[nH]nc2ccc(Br)c(Oc3ccccc3)n12,> 50
13,O=c1[nH]nc2ccc(-c3cccc4ccccc34)cn12,> 50
14,O=c1[nH]nc2ccc(-c3ccc(-c4ccccc4)cc3)cn12,> 50
15,O=c1[nH]nc2cccc(Oc3ccccc3)n12,> 50
16,O=c1[nH]nc2ccc(-c3ccccc3Cl)c(Oc3ccccc3)n12,> 50
17,O=c1[nH]nc2ccc(-c3ccccc3)c(OCC3CC3)n12,> 50
18,O=c1[nH]nc2cccc(-c3ccccc3)n12,> 50
19,O=c1[nH]nc2cccc(C#CC3CC3)n12,> 50
20,Cc1ccc(C)c(-c2ccc3n[nH]c(=O)n3c2)c1,> 50
21,O=c1[nH]nc2ccc(-c3cccc(Cl)c3)cn12,> 50
22,O=c1[nH]nc2ccc(-c3ccccc3-c3cccc(F)c3)cn12,> 50
23,O=c1[nH]nc2ccc(-c3ccccc3-c3ccccc3)cn12,> 50
24,COc1ccc(-c2ccc3n[nH]c(=O)n3c2)c(Cl)c1,> 50
25,O=C1NNC2CCCC(CCC3CC3)N12 (centres unmarked),> 50
26,O=c1[nH]nc2ccc(-c3ccccc3Cl)c(OCC3CC3)n12,> 50
27,O=c1[nH]nc2ccc(Br)cn12,> 50
28,O=c1[nH]nc2ccc(Oc3ccccc3)cn12,> 50

# Same assay, conditions: H3N2, MDCK, 48 h, read-out: CPE IC50
row,SMILES,IC50 [µM]
1,O=c1[nH]nc2ccc(-c3cccc(-c4c(F)cccc4F)c3)cn12,34.9
